In patent publication US20070111989A1, “Novel diazabicyclononene derivatives and use” (priority 2004, published 2007):

Biological target: T1, human recombinant renin (Homo sapiens, UniProt P00797)
T1 sequence (P00797 67-406): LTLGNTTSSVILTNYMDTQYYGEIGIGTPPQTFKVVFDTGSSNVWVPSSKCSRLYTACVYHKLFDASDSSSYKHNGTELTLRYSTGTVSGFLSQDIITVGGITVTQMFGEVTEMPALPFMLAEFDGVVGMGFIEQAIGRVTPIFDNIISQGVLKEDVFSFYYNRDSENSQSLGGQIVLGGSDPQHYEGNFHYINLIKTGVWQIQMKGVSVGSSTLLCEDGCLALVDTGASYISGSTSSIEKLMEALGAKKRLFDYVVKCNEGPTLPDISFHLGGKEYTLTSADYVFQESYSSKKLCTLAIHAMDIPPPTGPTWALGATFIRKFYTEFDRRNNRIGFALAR
Assay: Inhibition of human recombinant renin, enzymatic in vitro assay with Ang I EIA detection
Format: biochemical
Conditions: human recombinant renin 0.16 ng/mL, synthetic human angiotensin(1-14) 0.5 μM, 37° C. for 3 h; read-out: IC50 (concentration that inhibited the enzyme activity by 50%)
Description: Inhibition of Human Recombinant Renin by the Compounds of the Invention The enzymatic in vitro assay was performed in 384-well polypropylene plates (Nunc). The assay buffer consisted of 10 mM PBS (Gibco BRL) including 1 mM EDTA and 0.1% BSA. The incubates were composed of 50 μL per well of an enzyme mix and 2.5 μL of renin inhibitors in DMSO. The enzyme mix was premixed at 4° C. and consists of the following components: • human recombinant renin (0.16 ng/mL) • synthetic human angiotensin(1-14) (0.5 μM) • hydroxyquinoline sulfate (1 mM) The mixtures were then incubated at 37° C. for 3 h. To determine the enzymatic activity and its inhibition, the accumulated Ang I was detected by an enzyme immunoassay (EIA) in 384-well plates (Nunc). 5 μL of the incubates or standards were transferred to immuno plates which were previously coated with a covalent complex of Ang I and bovine serum albumin (Ang 1-BSA). 75 μL of Ang I-antibodies in essaybuffer above including 0.01% Tween 20 were added and a primary incubation made at 4° C. overnight. The plates were washed 3 times with PBS including 0.01% Tween 20, and then incubated for 2 h at rt with an antirabbit-peroxidase coupled antibody (WA 934, Amersham).

Compound `COCCOc1nccc(CN(C(=O)C2=C(c3ccc(CCCOc4c(F)ccc(F)c4Cl)cc3)C[C@@H]3CNC[C@H]2N3)C2CC2)c1C` (racemic) [Example 1, (rac.)-(1R*,5S*)-7-{4-[3-(2-Chloro-3,6-difluorophenoxy)propyl]phenyl}-3,9-diazabicyclo[3.3.1]non-6-ene-6-carboxylic acid cyclopropyl-[2-(2-methoxy-ethoxy)-3-methylpyridin-4-ylmethyl]amide] has an IC50 of 1 nM.

Work on `COCCOc1cccc(CN(C(=O)C2=C(c3ccc(CCCOc4c(F)ccc(F)c4Cl)cc3)CC3CNCC2N3)C2CC2)c1C` (racemic) [Example 2, (rac.)-(1R*,5S*)-7-{(4-[3-(2-Chloro-3,6-difluorophenoxy)propyl]phenyl}-3,9-diazabicyclo[3.3.1]non-6-ene-6-carboxylic acid cyclopropyl-[3-(2-methoxy-ethoxy)-2-methylbenzyl]amide] yielded an IC50 of 1.05 nM.
